According to patent publication US20230357241A1, “1H-PYRROLO[2,3-C]PYRIDINE COMPOUNDS AND APPLICATION THEREOF” (MEDSHINE DISCOVERY INC., priority 2020, published 2023):
Counter-ions that a name gives are not always drawn.

Tests used:
CSF-1R = CSF-1R (Homo sapiens (Human), UniProt P07333); experiment: In vitro enzymatic inhibitory activity, CSF-1R kinase (33P-ATP filter-binding); type: biochemical; details: CSF-1R 2.5 nM, 2 h room temperature
Method: Basic reaction buffer: 20 mM hydroxyethylpiperazine ethane sulfonic acid (pH 7.5), 10 mM magnesium chloride, 1 mM EGTA, 0.02% Brij35, 0.02 mg/mL bovine serum albumin, 0.1 mM
Na3VO4, 2 mM DTT, 1% DMSO
Necessary cofactors were separately added to the CSF-1R kinase reaction.
The test compounds were prepared into solutions of specified concentrations in 100% DMSO, and the solutions were serially diluted in DMSO using the Integra Viaflo Assist.
1. A fresh medium preparation reaction buffer was prepared;
2. All necessary cofactors were added to the reaction buffer described above;
3. The kinase was added into the medium solution and the mixture was shaked gently;
4. Solutions of the compounds in DMSO were added to the kinase reaction mixture using an acoustic technique (Echo550; in nanoliter range), and the system was incubated at room temperature for 20 min;
5. ^33P-ATP (specific activity: 10 μCi/μL) was added to the reaction mixture to initiate the reaction;
6. The mixture was incubated for 2 h at room temperature;
7. The kinase activity was detected by a filter-binding method;
8. The kinase activity IC50 values and the curves were obtained by comparison with the other kinases and the vehicle (DMSO) group using Prism (GraphPad software).

CYP3A4 = CYP3A4 (Homo sapiens (Human), UniProt P08684); experiment: Cytochrome enzyme inhibition study, CYP3A4; type: in vitro ADME; details: human liver microsomes, mixed probe substrate; read-out: CYP inhibition (IC50, μM) 3A4
Method: (§1) A mixed probe substrate of CYP isoenzymes were used to evaluate the inhibitory effect of test compounds on human liver microsomal cytochrome P450 isoenzymes (CYP1A2, CYP2C9, CYP2C19, CYP2D6 and CYP3A4). The test compounds were prepared into 10 mM stock solutions with DMSO. A 178 μL solution of human liver microsome and substrate mixture was added to the non-inhibitor control (NIC) and test compound wells of the reaction plate and the reaction was then placed on ice. 2 μL of blank solvent and test compound working solution were taken from the dilution plate, and added to the reaction plate (at final concentrations of 0.05-50 μM). The reaction plate was prewarmed in a 37±0.2° C. water bath for 10 min. 20 μL of the cofactor solution was taken by a liquid treatment workstation and added into the reaction plate to initiate the reaction. After 10 min, 400 μL of terminating solution was added to the reaction plate to terminate the reaction, and the reaction plate was incubated on ice for 5 min. […] The peak areas of the substrate and the product were detected by liquid chromatography-mass spectrometer (LC/MS/MS). […] The peak area ratio of the metabolite generated by the probe substrate to the internal standard was determined by liquid chromatography-mass spectrometer (LC-MS/MS). […] IC50 values were calculated by a three-parameter or four-parameter sigmoidal logarithmic equation. […]

[1] = Pharmacokinetic study in rats; type: in vivo; details: male, SD, plasma, rat
Text: (§2) This study was intended to explore the pharmacokinetics of the test compound in the plasma of male C57BL/6J mice and SD rats after intravenous and oral administrations.
(§3) The animals were randomized into two groups of 3 male animals. The compounds were formulated as designated (vehicle: 0.5% MC), i.e., clear solutions for intravenous injection and clear or homogeneous suspensions for oral formulations.
(§4) Animal whole blood samples were collected by jugular vein puncture or from saphenous vein at 5 min, 15 min and 30 min and 1 h, 2 h, 4 h, 6 h and 8 h post-dose. The whole blood samples were added to centrifuge tubes containing anticoagulant and centrifuged at 4° C., 3000 g for 15 min. The plasma supernatant was taken and quickly frozen on dry ice and stored in a freezer at −70±10° C. before LC-MS/MS analysis.
(§5) Plasma drug concentration data for compounds were processed in a non-compartmental model using WinNonlin™ Version 6.3.0 (Pharsight, Mountain View, CA) pharmacokinetic software. Peak concentration (Cmax) and time to peak (Tmax) and time of the last quantifiable concentration were directly obtained from the plasma concentration-time curve.
(§6) The following pharmacokinetic parameters were calculated using the log-linear trapezoidal method: plasma clearance (CL), volume of distribution (Vd), elimination phase half-life (T1/2), mean retention time of the compound from point 0 to the last time point (MRT0-last), mean retention time of the compound from point 0 to infinite (MRT0-inf), area under the time-plasma concentration curve from point 0 to the last time point (AUC0-last), area under the time-plasma concentration curve from point 0 to infinite (AUC0-inf) and bioavailability (F).

CYP2D6 = CYP2D6 (Homo sapiens (Human), UniProt P10635); experiment: Cytochrome enzyme inhibition study, CYP2D6; type: in vitro ADME; details: human liver microsomes, mixed probe substrate; read-out: CYP inhibition (IC50, μM) 2D6
Method: as §1

CYP2C19 = CYP2C19 (Homo sapiens (Human), UniProt P33261); experiment: Cytochrome enzyme inhibition study, CYP2C19; type: in vitro ADME; details: human liver microsomes, mixed probe substrate; read-out: CYP inhibition (IC50, μM) 2C19
Method: as §1

CYP1A2 = CYP1A2 (Homo sapiens (Human), UniProt P05177); experiment: Cytochrome enzyme inhibition study, CYP1A2; type: in vitro ADME; details: human liver microsomes, mixed probe substrate; read-out: CYP inhibition (IC50, μM) 1A2
Method: as §1

[2] = Pharmacokinetic study in mice; type: in vivo, male C57BL/6J mice; details: male, C57BL/6J, plasma, mouse
Text: as §2, §3, §4, §5, §6

CYP2C9 = CYP2C9 (Homo sapiens (Human), UniProt P11712); experiment: Cytochrome enzyme inhibition study, CYP2C9; type: in vitro ADME; details: human liver microsomes, mixed probe substrate; read-out: CYP inhibition (IC50, μM) 2C9
Method: as §1

MDR1-MDCK = experiment: Permeability study (MDR1-MDCK), bi-directional transport; type: in vitro ADME; details: conclusion in words
[3] = tested on: Ba/F3-TEL-CSF1R cell in situ graft tumor; experiment: In vivo pharmacodynamic study, Ba/F3-TEL-CSF1R cell in situ graft tumor model (splenomegaly); design: species or system nu/nu mice; details: for efficacy in TEL-CSF1R-BaF3 cell splenomegaly assay: p.o., QD
Method: The in vivo efficacy of compound 1 hydrochloride on Ba/F3-TEL-CSF1R cell in situ graft tumor model was evaluated.
• Cell culture: Ba/F3-TEL-CSF1R cells were cultured in 1640 medium (Biological Industries)+10% fetal bovine serum (BI)+1% dual antibiotic solution (Penicilin Streptomycin Solution, Coring, USA) at 37° C. at 5% CO2 and passaged twice a week. When the saturation reached 80%-90% and met the requirement, the cells were collected, counted and grafted. • Animals: 28 nu/nu mice, female, aged 6-8 weeks, 18-22 g, supplied by Beijing Vital River Laboratory Animal Technology Co., Ltd. • Tumor grafting: 0.2 mL of Ba/F3-TEL-CSF1R cell suspension (2×10^6 cells) was grafted into each mouse through tail vein injection, and the mice were randomized by weight on day 10. • Grouping and dosing regimens
The animals were housed in SPF animal rooms in independent cages with air supply, and each cage contained no more than 5 animals. • ? Temperature: 20-26° C. • ? Humidity: 35%-75% • ? Illumination: 12 h/12 h light/darkness cycle • ? Corn core padding, changed once a week • ? […] Labeling: ear cutting. • Grouping: The subcutaneous tumor-bearing state was observed every day after grafting; the body weight and tumor volume were measured before grouping, and the mice were randomized according to the data. • Observation: The drafting and any modification of the protocol were approved by the Ethics
Committee of Laboratory Animal Welfare of Precision Preceding Do Co., Ltd. (Hefei, China). Animals were monitored daily for health and mortality, including, for example, tumor growth, mobility, diet, weight, eye, hair and other abnormal behaviors, appearance, signs or other abnormalities. The numbers of deaths and adverse events in the groups were recorded based on the number of animals. • Parameters: The body weights were measured and animal survival rate observed daily; at the end of the study (4 h after the last dose), the mice were euthanized and the spleen and liver were collected, weighed and photographed. • The results are shown in FIG. 1.

CSF-1R, sequence (P07333 20-972): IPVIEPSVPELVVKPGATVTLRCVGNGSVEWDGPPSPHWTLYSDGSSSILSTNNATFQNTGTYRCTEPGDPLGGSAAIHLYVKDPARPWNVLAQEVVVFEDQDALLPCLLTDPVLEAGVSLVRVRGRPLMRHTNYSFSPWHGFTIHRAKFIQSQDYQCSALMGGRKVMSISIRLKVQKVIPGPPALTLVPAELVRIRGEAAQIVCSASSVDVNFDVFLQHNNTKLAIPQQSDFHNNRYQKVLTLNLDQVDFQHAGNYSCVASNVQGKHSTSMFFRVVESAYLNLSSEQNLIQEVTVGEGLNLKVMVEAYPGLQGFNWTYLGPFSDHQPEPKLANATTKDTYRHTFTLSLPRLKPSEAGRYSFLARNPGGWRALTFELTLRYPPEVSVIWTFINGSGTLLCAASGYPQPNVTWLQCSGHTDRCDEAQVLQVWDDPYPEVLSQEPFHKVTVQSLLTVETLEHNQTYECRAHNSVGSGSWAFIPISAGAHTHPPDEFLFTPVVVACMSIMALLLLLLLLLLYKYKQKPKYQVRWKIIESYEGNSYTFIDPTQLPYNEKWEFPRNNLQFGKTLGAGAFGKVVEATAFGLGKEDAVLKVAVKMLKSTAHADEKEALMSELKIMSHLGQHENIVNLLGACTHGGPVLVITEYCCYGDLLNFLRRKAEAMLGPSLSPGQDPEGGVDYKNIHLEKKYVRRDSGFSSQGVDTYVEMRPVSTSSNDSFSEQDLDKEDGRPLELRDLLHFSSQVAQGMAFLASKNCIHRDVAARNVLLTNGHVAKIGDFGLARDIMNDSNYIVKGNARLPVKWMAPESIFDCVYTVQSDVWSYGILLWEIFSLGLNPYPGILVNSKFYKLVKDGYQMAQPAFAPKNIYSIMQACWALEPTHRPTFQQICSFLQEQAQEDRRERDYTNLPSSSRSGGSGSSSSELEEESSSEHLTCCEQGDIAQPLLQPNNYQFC
CYP2C9, sequence (P11712 whole entry): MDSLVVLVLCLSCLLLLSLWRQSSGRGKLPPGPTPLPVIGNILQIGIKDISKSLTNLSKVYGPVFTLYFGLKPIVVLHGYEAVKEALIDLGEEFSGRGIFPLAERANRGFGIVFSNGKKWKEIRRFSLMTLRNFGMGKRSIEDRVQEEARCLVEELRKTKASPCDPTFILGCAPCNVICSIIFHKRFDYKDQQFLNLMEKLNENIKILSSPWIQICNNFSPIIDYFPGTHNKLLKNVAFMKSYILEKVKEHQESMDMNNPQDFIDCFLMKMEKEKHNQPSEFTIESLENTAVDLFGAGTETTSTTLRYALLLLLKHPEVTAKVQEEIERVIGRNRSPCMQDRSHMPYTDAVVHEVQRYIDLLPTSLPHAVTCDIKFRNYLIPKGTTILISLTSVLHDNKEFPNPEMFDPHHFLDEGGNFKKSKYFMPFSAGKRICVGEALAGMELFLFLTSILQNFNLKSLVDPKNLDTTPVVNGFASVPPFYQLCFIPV
CYP2D6, sequence (P10635 whole entry): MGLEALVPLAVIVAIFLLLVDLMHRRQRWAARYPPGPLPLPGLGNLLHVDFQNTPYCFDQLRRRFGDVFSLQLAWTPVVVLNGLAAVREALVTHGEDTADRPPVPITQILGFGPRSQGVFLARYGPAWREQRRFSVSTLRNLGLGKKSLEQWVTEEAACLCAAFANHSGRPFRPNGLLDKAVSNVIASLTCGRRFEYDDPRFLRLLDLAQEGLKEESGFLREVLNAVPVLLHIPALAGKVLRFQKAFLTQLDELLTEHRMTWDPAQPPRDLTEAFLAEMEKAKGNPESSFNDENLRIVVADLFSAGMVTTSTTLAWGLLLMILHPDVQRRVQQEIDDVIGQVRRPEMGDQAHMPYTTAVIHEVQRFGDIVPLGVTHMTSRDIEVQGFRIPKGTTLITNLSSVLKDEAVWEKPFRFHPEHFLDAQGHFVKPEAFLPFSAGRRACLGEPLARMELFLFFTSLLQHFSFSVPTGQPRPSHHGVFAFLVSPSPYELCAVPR
CYP3A4, sequence (P08684 whole entry): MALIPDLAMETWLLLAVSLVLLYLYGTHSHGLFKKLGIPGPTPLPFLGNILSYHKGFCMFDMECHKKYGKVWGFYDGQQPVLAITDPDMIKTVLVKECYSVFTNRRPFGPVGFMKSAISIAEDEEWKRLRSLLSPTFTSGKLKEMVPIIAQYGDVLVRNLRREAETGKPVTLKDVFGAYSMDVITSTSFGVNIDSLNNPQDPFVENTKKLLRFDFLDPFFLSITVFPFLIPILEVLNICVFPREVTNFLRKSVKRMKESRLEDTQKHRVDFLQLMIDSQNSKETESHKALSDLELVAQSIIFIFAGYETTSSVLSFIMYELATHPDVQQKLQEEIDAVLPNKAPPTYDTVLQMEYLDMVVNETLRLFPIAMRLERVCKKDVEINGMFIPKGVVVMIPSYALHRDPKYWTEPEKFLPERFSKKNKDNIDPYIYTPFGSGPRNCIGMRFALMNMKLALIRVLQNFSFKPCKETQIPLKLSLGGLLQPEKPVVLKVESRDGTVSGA
CYP1A2, sequence (P05177 whole entry): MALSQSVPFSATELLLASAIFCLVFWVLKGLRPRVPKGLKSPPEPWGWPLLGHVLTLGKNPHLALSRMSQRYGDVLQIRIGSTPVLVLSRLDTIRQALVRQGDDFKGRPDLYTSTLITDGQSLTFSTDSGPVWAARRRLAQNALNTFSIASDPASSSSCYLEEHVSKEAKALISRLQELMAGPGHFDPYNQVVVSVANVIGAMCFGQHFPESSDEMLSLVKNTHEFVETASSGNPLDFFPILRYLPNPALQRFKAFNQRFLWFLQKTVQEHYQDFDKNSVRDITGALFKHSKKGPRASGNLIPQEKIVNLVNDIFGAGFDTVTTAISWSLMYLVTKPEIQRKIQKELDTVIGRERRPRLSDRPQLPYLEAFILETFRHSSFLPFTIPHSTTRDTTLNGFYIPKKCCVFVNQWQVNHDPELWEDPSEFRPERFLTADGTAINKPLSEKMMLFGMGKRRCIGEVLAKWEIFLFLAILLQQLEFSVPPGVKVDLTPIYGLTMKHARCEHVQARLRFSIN
CYP2C19, sequence (P33261 whole entry): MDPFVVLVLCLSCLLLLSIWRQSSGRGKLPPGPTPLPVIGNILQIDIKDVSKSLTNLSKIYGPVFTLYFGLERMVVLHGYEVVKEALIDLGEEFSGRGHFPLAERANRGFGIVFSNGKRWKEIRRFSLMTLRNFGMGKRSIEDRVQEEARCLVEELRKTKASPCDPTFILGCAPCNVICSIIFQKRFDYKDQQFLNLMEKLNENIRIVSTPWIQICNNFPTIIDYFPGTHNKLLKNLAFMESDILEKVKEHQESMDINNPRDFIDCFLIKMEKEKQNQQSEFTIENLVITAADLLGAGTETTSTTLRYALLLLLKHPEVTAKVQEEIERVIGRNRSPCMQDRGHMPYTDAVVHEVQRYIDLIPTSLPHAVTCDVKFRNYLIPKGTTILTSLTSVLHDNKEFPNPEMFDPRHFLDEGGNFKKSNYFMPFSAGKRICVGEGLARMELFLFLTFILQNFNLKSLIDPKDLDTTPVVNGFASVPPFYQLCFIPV

CNC(=O)c1nccc2c(-c3cnc(Nc4ccc(OC)cc4)cc3C)c[nH]c12 [Compound 8 hydrochloride]
IC50 (CSF-1R): 10 nM

CNC(=O)c1nccc2c(-c3cnc(Nc4ccc(OC5CC5)nc4)cc3C)cn(C)c12 [Compound 2 hydrochloride]
IC50 (CSF-1R): 26.8 nM

CNC(=O)c1nccc2c(-c3cnc(Nc4ccc(OC)nc4)cc3C)c[nH]c12 [Compound 7 hydrochloride]
IC50 (CSF-1R): 26 nM

Cl.FC(F)(F)c1ccc(CNc2ccc(Cc3c[nH]c4ncc(Cl)cc34)cn2)cn1 [PLX-3397, Pexidartinib, reference compound]
IC50 (CYP3A4): > 35.6 µM
AUC(0-t) ([1]; 1 mg/kg, IV, 1 mpk): 8.49 µM·h
Vd ([1]; 1 mg/kg, IV, 1 mpk): 0.613 L/kg
clearance ([1]; 1 mg/kg, IV, 1 mpk): 4.64 mL/min/kg
half-life ([1]; 1 mg/kg, IV, 1 mpk): 1.27 h
AUC(0-t) ([1]; 10 mg/kg, PO, 10 mpk): 70.2 µM·h
Cmax ([1]; 10 mg/kg, PO, 10 mpk): 10.7 µM
Tmax ([1]; 10 mg/kg, PO, 10 mpk): 1.5 h
bioavailability ([1]; 10 mg/kg, PO, 10 mpk): 81%
IC50 (CYP2D6): 8.77 µM
IC50 (CYP2C19): 8.32 µM
IC50 (CYP1A2): 24 µM
AUC(0-t) ([2]; 1 mg/kg, IV, 1 mpk): 29 µM·h
Vd ([2]; 1 mg/kg, IV, 1 mpk): 0.265 L/kg
clearance ([2]; 1 mg/kg, IV, 1 mpk): 0.927 mL/min/kg
half-life ([2]; 1 mg/kg, IV, 1 mpk): 3.33 h
AUC(0-t) ([2]; 10 mg/kg, PO, 10 mpk): 131 µM·h
Cmax ([2]; 10 mg/kg, PO, 10 mpk): 17.2 µM
Tmax ([2]; 10 mg/kg, PO, 10 mpk): 4 h
bioavailability ([2]; 10 mg/kg, PO, 10 mpk): 74.1%
IC50 (CYP2C9): 3.81 µM

CNC(=O)c1nccc2c(-c3cnc(Nc4ccc(OC(C)C)cc4)cc3C)c[nH]c12 [Compound 3 hydrochloride]
IC50 (CSF-1R): 34 nM

CNC(=O)c1nccc2c(-c3cnc(Nc4ccc(C)nc4)cc3C)c[nH]c12 [Compound 6 hydrochloride]
IC50 (CSF-1R): 30 nM

CNC(=O)c1nccc2c(-c3cnc(Nc4ccc(OC5CC5)nc4)cc3C)c[nH]c12 [Compound 1 hydrochloride]
IC50 (CYP3A4): 28 µM
AUC(0-t) ([1]; 1 mg/kg, IV, 1 mpk): 66 µM·h
Vd ([1]; 1 mg/kg, IV, 1 mpk): 0.2 L/kg
clearance ([1]; 1 mg/kg, IV, 1 mpk): 0.61 mL/min/kg
half-life ([1]; 1 mg/kg, IV, 1 mpk): 3.4 h
AUC(0-t) ([1]; 3 mg/kg, PO, 3 mpk): 249 µM·h
Cmax ([1]; 3 mg/kg, PO, 3 mpk): 27.4 µM
Tmax ([1]; 3 mg/kg, PO, 3 mpk): 2 h
bioavailability ([1]; 3 mg/kg, PO, 3 mpk): 129%
IC50 (CYP2D6): > 50 µM
IC50 (CYP2C19): 21 µM
IC50 (CYP1A2): > 50 µM
AUC(0-t) ([2]; 1 mg/kg, IV, 1 mpk): 168 µM·h
Vd ([2]; 1 mg/kg, IV, 1 mpk): 0.15 L/kg
clearance ([2]; 1 mg/kg, IV, 1 mpk): 0.2 mL/min/kg
half-life ([2]; 1 mg/kg, IV, 1 mpk): 8.62 h
AUC(0-t) ([2]; 10 mg/kg, PO, 10 mpk): 1650 µM·h
Cmax ([2]; 10 mg/kg, PO, 10 mpk): 117 µM
Tmax ([2]; 10 mg/kg, PO, 10 mpk): 3 h
bioavailability ([2]; 10 mg/kg, PO, 10 mpk): 98%
IC50 (CYP2C9): 11.6 µM
IC50 (CSF-1R): 1.13 nM
permeability compared with PLX-3397 (MDR1-MDCK): higher than that of PLX-3397
efficacy in TEL-CSF1R-BaF3 cell splenomegaly assay ([3]; 1 mpk, comparable to PLX-3397 (10 mg/kg)): significant efficacy
efficacy in TEL-CSF1R-BaF3 cell splenomegaly assay ([3]; 10 mpk): significant advantage
dose-dependence in TEL-CSF1R-BaF3 cell splenomegaly assay ([3]; high, medium and low doses (10, 3, 1 mg/kg p.o. QD)): clear dose-dependence
